In PubChem BioAssay AID180 (DTP/NCI, 2004):
Several values for one entry are separate records, joined by “and”; a condition that tells them apart may be missing. Equal entries are not always repeated.

Tested on: BDF1 mice, Adenocarcinoma 755 s.c., tumor weight T/C
Test: NCI In Vivo Anticancer Drug Screen. Data for tumor model Adenocarcinoma 755 (subcutaneous) in B6D2F1 (BDF1) mice
Conditions: endpoint: mean tumor weight, higher = larger tumour
Summary of the method: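 Readout: T/C, i.e. treated-group measurement over vehicle-control measurement. Endpoint is survival or tumor size in tumor-bearing mice given compound.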

[1] = dose: 12.0 mg/kg/injection, schedule: Q01DX011 (ip), vehicle: carboxymethylcellulose (CMC)
[2] = dose: 62.5 mg/kg/injection, schedule: Q01DX011 (ip), vehicle: methylcellulose (MC)
[3] = dose: 125.0 mg/kg/injection, schedule: Q01DX011 (ip), vehicle: methylcellulose (MC)
[4] = dose: 15.0 mg/kg/injection, schedule: Q01DX011 (ip), vehicle: methylcellulose (MC)
[5] = dose: 250.0 mg/kg/injection, schedule: Q01DX011 (ip), vehicle: methylcellulose (MC)
[6] = dose: 50.0 mg/kg/injection, schedule: Q01DX011 (ip), vehicle: methylcellulose (MC)
[7] = dose: 1.0 mg/kg/injection, schedule: Q01DX011 (ip), vehicle: carboxymethylcellulose (CMC)
[8] = dose: 2.0 mg/kg/injection, schedule: Q01DX011 (ip), vehicle: carboxymethylcellulose (CMC)
[9] = dose: 3.0 mg/kg/injection, schedule: Q01DX011 (ip), vehicle: carboxymethylcellulose (CMC)

Cc1cc2nc3c(=O)[nH]c(=O)nc-3n(CC(O)C(O)C(O)C(O)CO)c2cc1C (centres undefined)
T/C [1]: 96 % of control and 111 % of control
T/C (dose: 14.13 mg/kg/injection, schedule: Q01DX011 (ip), vehicle: carboxymethylcellulose (CMC)): 91 % of control
T/C (dose: 19.0 mg/kg/injection, schedule: Q01DX011 (ip), vehicle: carboxymethylcellulose (CMC)): 90 % of control and 76 % of control
T/C (dose: 26.25 mg/kg/injection, schedule: Q01DX011 (ip), vehicle: carboxymethylcellulose (CMC)): 79 % of control
T/C (dose: 28.25 mg/kg/injection, schedule: Q01DX011 (ip), vehicle: carboxymethylcellulose (CMC)): 122 % of control
T/C (dose: 52.5 mg/kg/injection, schedule: Q01DX011 (ip), vehicle: carboxymethylcellulose (CMC)): 95 % of control
T/C (dose: 56.5 mg/kg/injection, schedule: Q01DX011 (ip), vehicle: carboxymethylcellulose (CMC)): 60 % of control
T/C [2]: 94 % of control
T/C (dose: 105.0 mg/kg/injection, schedule: Q01DX011 (ip), vehicle: carboxymethylcellulose (CMC)): 116 % of control
T/C (dose: 113.0 mg/kg/injection, schedule: Q01DX011 (ip), vehicle: carboxymethylcellulose (CMC)): 62 % of control
T/C [3]: 27 % of control
T/C (dose: 210.0 mg/kg/injection, schedule: Q01DX011 (ip), vehicle: carboxymethylcellulose (CMC)): 101 % of control

Cc1ccc(Nc2nc(N)nc(C)c2Br)cc1
T/C [4]: 98 % of control
T/C (dose: 31.0 mg/kg/injection, schedule: Q01DX011 (ip), vehicle: methylcellulose (MC)): 95 % of control
T/C (dose: 62.0 mg/kg/injection, schedule: Q01DX011 (ip), vehicle: methylcellulose (MC)): 82 % of control
T/C [3]: 70 % of control
T/C [5]: 83 % of control

O=C(O)c1ccc(-c2ccccc2)cc1
T/C (dose: 200.0 mg/kg/injection, schedule: Q01DX011 (ip), vehicle: carboxymethylcellulose (CMC)): 80 % of control

COc1ccc2c(c1)CCC(c1ccccc1)=C2c1ccc(OCCN2CCCC2)cc1
T/C (dose: 3.0 mg/kg/injection, schedule: Q01DX011 (sc), vehicle: steriod suspending solution): 86 % of control
T/C (dose: 6.0 mg/kg/injection, schedule: Q01DX011 (sc), vehicle: steriod suspending solution): 82 % of control
T/C (dose: 12.0 mg/kg/injection, schedule: Q01DX011 (sc), vehicle: steriod suspending solution): 34 % of control
T/C (dose: 25.0 mg/kg/injection, schedule: Q01DX011 (sc), vehicle: steriod suspending solution): 26 % of control

CC(=O)Nc1c(Cl)c(Cl)c2c(c1Cl)C(=O)c1cc(Cl)ccc1-2
T/C [6]: 57 % of control
T/C (dose: 50.0 mg/kg/injection, schedule: Q01DX011 (ip), vehicle: other): 100 % of control and 112 % of control
T/C (dose: 100.0 mg/kg/injection, schedule: Q01DX011 (ip), vehicle: methylcellulose (MC)): 65 % of control
T/C (dose: 100.0 mg/kg/injection, schedule: Q01DX011 (ip), vehicle: other): 65 % of control
T/C (dose: 400.0 mg/kg/injection, schedule: Q01DX011 (ip), vehicle: other): 41 % of control and 64 % of control and 66 % of control
T/C (dose: 800.0 mg/kg/injection, schedule: Q01DX011 (ip), vehicle: other): 59 % of control

CN(C)[C@@H]1C(=O)C(C(=O)NCc2nc3[nH]cnc(=S)c3[nH]2)=C(O)[C@@]2(O)C(=O)C3=C(O)c4c(O)cccc4[C@@](C)(O)[C@H]3C[C@@H]12
T/C [7]: 64 % of control
T/C [8]: 44 % of control
T/C [9]: 78 % of control
T/C (dose: 4.0 mg/kg/injection, schedule: Q01DX011 (ip), vehicle: carboxymethylcellulose (CMC)): 62 % of control
T/C (dose: 14.0 mg/kg/injection, schedule: Q01DX011 (ip), vehicle: carboxymethylcellulose (CMC)): 1 % of control and 3 % of control and 5 % of control
T/C (dose: 28.0 mg/kg/injection, schedule: Q01DX011 (ip), vehicle: carboxymethylcellulose (CMC)): 1 % of control and 2 % of control
T/C (dose: 56.0 mg/kg/injection, schedule: Q01DX011 (ip), vehicle: carboxymethylcellulose (CMC)): 6 % of control

Nc1nc(N)c2[nH]c(N=Nc3ccc(N(CCO)CCO)cc3)nc2n1
T/C (dose: 37.5 mg/kg/injection, schedule: Q01DX011 (ip), vehicle: saline): 152 % of control
T/C (dose: 150.0 mg/kg/injection, schedule: Q01DX011 (ip), vehicle: saline): 65 % of control

CC(C)C(=O)OCC1OC(n2cnc3c(=S)nc(N)[nH]c32)C(OC(=O)C(C)C)C1OC(=O)C(C)C (centres undefined)
T/C (dose: 1.5 mg/kg/injection, schedule: Q01DX011 (ip), vehicle: carboxymethylcellulose (CMC)): 76 % of control and 79 % of control
T/C [9]: 43 % of control
T/C (dose: 6.0 mg/kg/injection, schedule: Q01DX011 (ip), vehicle: carboxymethylcellulose (CMC)): 25 % of control
T/C [1]: 18 % of control

CC1CCCN(/N=N/c2nc3c([nH]2)c(=O)n(C)c(=O)n3C)C1 (centres undefined)
T/C (dose: 25.0 mg/kg/injection, schedule: Q01DX011 (ip), vehicle: methylcellulose (MC)): 66 % of control
T/C (dose: 75.0 mg/kg/injection, schedule: Q01DX011 (ip), vehicle: methylcellulose (MC)): 61 % of control

O=[As]O
T/C (dose: 0.12 mg/kg/injection, schedule: Q01DX011 (ip), vehicle: carboxymethylcellulose (CMC)): 116 % of control
T/C (dose: 0.25 mg/kg/injection, schedule: Q01DX011 (ip), vehicle: carboxymethylcellulose (CMC)): 86 % of control
T/C (dose: 0.5 mg/kg/injection, schedule: Q01DX011 (ip), vehicle: carboxymethylcellulose (CMC)): 98 % of control
T/C [7]: 77 % of control
T/C (dose: 1.63 mg/kg/injection, schedule: Q01DX011 (ip), vehicle: carboxymethylcellulose (CMC)): 70 % of control
T/C [8]: 19 % of control
T/C (dose: 2.0 mg/kg/injection, schedule: Q01DX011 (ip), vehicle: methylcellulose (MC)): 66 % of control
T/C (dose: 3.15 mg/kg/injection, schedule: Q01DX011 (ip), vehicle: carboxymethylcellulose (CMC)): 124 % of control
T/C (dose: 3.25 mg/kg/injection, schedule: Q01DX011 (ip), vehicle: carboxymethylcellulose (CMC)): 72 % of control
T/C (dose: 5.0 mg/kg/injection, schedule: Q01DX011 (ip), vehicle: carboxymethylcellulose (CMC)): 21 % of control
T/C (dose: 5.0 mg/kg/injection, schedule: Q01DX011 (ip), vehicle: methylcellulose (MC)): 52 % of control
T/C (dose: 6.3 mg/kg/injection, schedule: Q01DX011 (ip), vehicle: carboxymethylcellulose (CMC)): 67 % of control
T/C (dose: 8.66 mg/kg/injection, schedule: Q01DX011 (ip), vehicle: carboxymethylcellulose (CMC)): 63 % of control and 70 % of control
T/C (dose: 12.6 mg/kg/injection, schedule: Q01DX011 (ip), vehicle: carboxymethylcellulose (CMC)): 67 % of control
T/C (dose: 13.0 mg/kg/injection, schedule: Q01DX011 (ip), vehicle: carboxymethylcellulose (CMC)): 28 % of control and 35 % of control

c1ncc2[nH]cnc2n1
T/C (dose: 27.33 mg/kg/injection, schedule: Q01DX011 (ip), vehicle: carboxymethylcellulose (CMC)): 71 % of control
T/C (dose: 49.34 mg/kg/injection, schedule: Q01DX011 (ip), vehicle: carboxymethylcellulose (CMC)): 80 % of control
T/C (dose: 54.67 mg/kg/injection, schedule: Q01DX011 (ip), vehicle: carboxymethylcellulose (CMC)): 82 % of control
T/C [2]: 68 % of control
T/C (dose: 98.68 mg/kg/injection, schedule: Q01DX011 (ip), vehicle: carboxymethylcellulose (CMC)): 71 % of control
T/C (dose: 109.35 mg/kg/injection, schedule: Q01DX011 (ip), vehicle: carboxymethylcellulose (CMC)): 91 % of control
T/C [3]: 57 % of control
T/C (dose: 173.2 mg/kg/injection, schedule: Q01DX011 (ip), vehicle: carboxymethylcellulose (CMC)): 101 % of control
T/C (dose: 197.35 mg/kg/injection, schedule: Q01DX011 (ip), vehicle: carboxymethylcellulose (CMC)): 69 % of control
T/C (dose: 218.7 mg/kg/injection, schedule: Q01DX011 (ip), vehicle: carboxymethylcellulose (CMC)): 123 % of control
T/C [5]: 54 % of control
T/C (dose: 288.66 mg/kg/injection, schedule: Q01DX011 (ip), vehicle: carboxymethylcellulose (CMC)): 72 % of control
T/C (dose: 394.7 mg/kg/injection, schedule: Q01DX011 (ip), vehicle: carboxymethylcellulose (CMC)): 35 % of control

CC(=O)Nc1nc(SCc2ccccc2)c2ncn(C3CCCO3)c2n1 (centres undefined)
T/C (dose: 6.2 mg/kg/injection, schedule: Q01DX011 (ip), vehicle: methylcellulose (MC)): 54 % of control
T/C [4]: 6 % of control
T/C [6]: 4 % of control

NNC(=O)c1nsnc1NC(N)=O
T/C (dose: 43.0 mg/kg/injection, schedule: Q01DX011 (ip), vehicle: carboxymethylcellulose (CMC)): 39 % of control
T/C (dose: 60.0 mg/kg/injection, schedule: Q01DX011 (ip), vehicle: carboxymethylcellulose (CMC)): 18 % of control

CN(C)S(=O)(=O)c1nc2nc[nH]c2c(=O)[nH]1
T/C (dose: 25.0 mg/kg/injection, schedule: Q01DX011 (ip), vehicle: carboxymethylcellulose (CMC)): 70 % of control
T/C (dose: 75.0 mg/kg/injection, schedule: Q01DX011 (ip), vehicle: carboxymethylcellulose (CMC)): 66 % of control
T/C (dose: 225.0 mg/kg/injection, schedule: Q01DX011 (ip), vehicle: carboxymethylcellulose (CMC)): 85 % of control
